According to ChEMBL document CHEMBL6092192 (J Med Chem, 2024):

Experiments:
SW620/AD300 [1] = assay: Reversal of paclitaxel resistance in human SW620/AD300 cells assessed as reversal fold by measuring ratio of paclitaxel IC50 to paclitaxel IC50 in presence of test compound incubated for 72 hrs by MTT assay; format: functional
SW620/AD300 [2] = assay: Cytotoxicity against multidrug resistant human SW620/AD300 cells assessed as survival rate at 4 uM measured after 72 hrs by MTT assay relative to control; format: functional; conditions: read-out: Survival
KB-C2 = assay: Cytotoxicity against human KB-C2 cells measured after 72 hrs by MTT assay; format: functional, cell-based; conditions: KB-C2, 72 h
KB 3-1 = assay: Cytotoxicity against human KB 3-1 cells measured after 72 hrs by MTT assay; format: functional, cell-based; conditions: KB 3-1, 72 h
HEK293 [3] = assay: Cytotoxicity against HEK293 cells harbouring ABCB1 measured after 72 hrs by MTT assay; format: functional, cell-based; conditions: Homo sapiens, HEK293, 72 h
SW620/AD300 [4] = assay: Cytotoxicity against multidrug resistant human SW620/AD300 cells measured after 72 hrs by MTT assay; format: functional, cell-based; conditions: SW620/AD300, 72 h
HEK293 [5] = assay: Cytotoxicity against HEK293 cells transfected with pcDNA3.1 measured after 72 hrs by MTT assay; format: functional, cell-based; conditions: Homo sapiens, HEK293, 72 h
SW-620 [6] = assay: Cytotoxicity against human SW620 cells measured after 72 hrs by MTT assay; format: functional, cell-based; conditions: SW-620, 72 h
SW-620 [7] = assay: Reversal of paclitaxel resistance in human SW620 cells assessed as reversal fold by measuring ratio of paclitaxel IC50 to paclitaxel IC50 in presence of test compound at 4 uM incubated for 72 hrs by MTT assay; format: functional

Structure (SMILES) | Ratio IC50 (SW620/AD300 [1]) | viability at 4 µM (SW620/AD300 [2]) [%] | also measured
Cc1cc(=O)n2nc(SCc3ccc(F)cc3)nc2[nH]1 | 14.9 | 99.4 | 
Cc1cc(=O)n2nc(SCc3ccc(Br)cc3)nc2[nH]1 | 10.29 | 94.9 | 
CCOC(=O)CCc1c(C)[nH]c2ncnn2c1=O | 1.03 | 94.2 | 
O=c1c2c([nH]c3ncnn13)CCCCC2 | 3.57 | 95.3 | 
Cc1[nH]c2ncnn2c(=O)c1C | 4.36 | 93.8 | 
CCCCCc1c(C)[nH]c2ncnn2c1=O | 1 | 98.6 | 
O=c1c2c([nH]c3ncnn13)CCC2 | 13.94 | 96.2 | 
Cc1cc(=O)n2nc(SCc3ccc([N+](=O)[O-])cc3)nc2[nH]1 | 7.08 | 93.2 | 
Cc1cc(=O)n2nc(SCc3nc4ccccc4[nH]3)nc2[nH]1 | 44.54 | 96.8 | 
O=c1c2c([nH]c3ncnn13)CSC2 | 8 | 97.7 | 
Cc1cc(=O)n2nc(SCc3csc4ccc(Cl)cc34)nc2[nH]1 | 18 | 94.6 | 
COC(=O)c1nc2[nH]c3c(c(=O)n2n1)CCC3 | 20.57 | 94.7 | 
Cc1cc(=O)n2nc(SCC3CCCCC3)nc2[nH]1 | 6 | 92.6 | 
Cc1cc(=O)n2c(C#N)c(C#N)nc2[nH]1 | 1.38 | 97.5 | 
O=c1c2c([nH]c3nc(SCc4nc5ccccc5[nH]4)nn13)CCC2 | 69.68 | 94.7 | 
Cc1cc(=O)n2nc(SCc3ccccc3)nc2[nH]1 | 10.8 | 95 | 
C#CCSc1nc2[nH]c3c(c(=O)n2n1)CCC3 | 24 | 96.9 | 
O=c1c2c([nH]c3nc(SCc4ccccc4)nn13)CCC2 | 25.41 | 94.7 | 
O=c1c2c([nH]c3ncnn13)COC2 | 6.75 | 98 | 
COC(=O)c1nc2[nH]c(C)cc(=O)n2n1 | 4.5 | 97.9 | 

Structure (SMILES) | Ratio IC50 (SW620/AD300 [1]) | viability at 4 µM (SW620/AD300 [2]) [%] | also measured
Cc1cc(=O)n2c(nc3ccccc32)[nH]1 | 1.09 | 96.2 | 
Cc1cc(=O)n2nc(SCc3ccc(C(F)(F)F)cc3)nc2[nH]1 | 4.08 | 97.6 | 
O=c1cc(-c2ccccc2)[nH]c2ncnn12 | 1.03 | 99 | 
CCc1cc(=O)n2ncnc2[nH]1 | 1.83 | 95.9 | 
O=c1c2c([nH]c3nc(SCc4csc5ccc(Cl)cc45)nn13)CCC2 | 56.1 | 98.8 | 
COc1ccc(CSc2nc3[nH]c(C)cc(=O)n3n2)cc1 | 33.49 | 93.6 | 
O=c1c2c([nH]c3ncnn13)CCCC2 | 6.45 | 94.7 | 
CC(=O)O[C@H]1C(=O)[C@@]2(C)[C@H]([C@H](OC(=O)c3ccccc3)[C@]3(O)C[C@H](OC(=O)[C@H](O)[C@@H](NC(=O)c4ccccc4)c4ccccc4)C(C)=C1C3(C)C)[C@]1(OC(C)=O)CO[C@@H]1C[C@@H]2O [PACLITAXEL] |  |  | IC50 (KB-C2): 2090 nM; IC50 (KB 3-1): 4.32 nM; IC50 (HEK293 [3]): 106 nM; IC50 (SW620/AD300 [4]): 4320 nM; IC50 (HEK293 [5]): 2.08 nM; IC50 (SW-620 [6]): 6.55 nM; Ratio IC50 (SW-620 [7]): 1.03
Cc1cc(=O)n2nc(SCc3ccc(Cl)c(F)c3)nc2[nH]1 | 18 | 97.6 | 
O=c1cc(C(F)F)[nH]c2ncnn12 | 1.06 | 92.4 | 
Cc1cc(=O)n2nc(SCc3nc4ccccc4s3)nc2[nH]1 | 60.85 | 97.2 | 
Cc1cc(=O)n2nccc2[nH]1 | 2.81 | 93.9 | 
O=c1cc(C2CC2)[nH]c2ncnn12 | 1.36 | 92.5 | 
Cc1cc(=O)n2nc(SCc3ccc(Cl)cc3)nc2[nH]1 | 13.94 | 94.5 | 
C#CCSc1nc2[nH]c(C)cc(=O)n2n1 | 4.6 | 97.2 | 
CC(C)c1cc(=O)n2ncnc2[nH]1 | 1.39 | 95.7 | 
Cc1cc(=O)n2nc(SCc3cccc4ccccc34)nc2[nH]1 | 24.27 | 97.8 | 
Cc1cc(=O)n2ncnc2[nH]1 | 5.4 | 97.6 | 
Cc1cc(=O)n2nc(SCc3cc(=O)oc4c3ccc3ccccc34)nc2[nH]1 | 57.6 | 97.1 | 
